Source: patent publication US5436273A, “Psychoactive propargylamine derivatives used in the treatment of anxiety, psychotic states or aggression” (Lowchol Scientific, Inc., priority 1993, dated 1995)
“Also recorded” adds a separate entry of the source. Like-named read-outs stand apart in the source and are kept apart here.

What was measured:
in vivo = conditions: mouse, ip
[1] = test system: spontaneous motor activity in rats; assay: Inhibition of spontaneous motor activity in rats; format: in vivo, Sprague Dawley rats; conditions: for ED50: Rattus norvegicus, ip, 0.5 h, i.p., 30 minutes
Description: (§1) Two animals are studied simultaneously, one treated and one control. After a 2 hour period of acclimatization to the room, a first activity count of 10 minutes duration is perfomed. The compound to be studied is then administered i.p. and the spontaneous activity is reevaluated 30 minutes later over a period of 10 minutes.
5. Inhibition of Spontaneous Motor Activity in Rats
The method is the same as described above for mice, except that because of the size of the animals (Sprague Dawley rats; 300 g), the test and control animals are not evaluated simultaneously, but alternatively.

[2] = test system: motor coordination (rotarod) in mice; conditions: mouse, in vivo
[3] = test system: righting reflex / ethanol narcosis in mice; assay: Potentiation of sleeping time induced by ethanol in mice; format: in vivo, CD #1 mice; conditions: for percentage of animals displaying a loss of the righting reflex: with ethanol
Description: 7. Potentiation of Sleeping Time Induced by Ethanol in Mice
This test was done with male CD #1 mice of 25-35 g. The mice are injected intraperitoneally (8 mice per dose). A subhypnotic dose of ethanol (12 ml/kg of 50% ethanol solution) is administered orally 30 minutes later.
The loss of the righting reflex is evaluated, for each animal, 30 minutes after the administration of the alcohol. It is considered that there is a potentialization of ethanol narcosis if the righting time exceeded 30 seconds.
The results which are reported in Table 7 are expressed in terms of the percentage of animals displaying a loss of the righting reflex versus the administered dose. Chlorpromazine (5 mg/kg i.p.) is used as a standard.

Acute toxicity test = conditions: mouse, in vivo, ip
Description: CD #1 mice (20-30 g) are used for this test. The animals are individualy housed in glass beakers for a 2 hour period of acclimatization without food and water.

[4] = Effect on body temperature in mice; format: in vivo, CD #1 mice; conditions: for Temp. Difference from Control: one hour
Description: 9. Effect on Body Temperature in Mice
Female CD #1 mice (20-30 g) are used. Rectal temperature is recorded before and one hour after s.c. administration of the compound to be studied (N=8/doses×4 doses). The solvent used is sterile water for intravenous injection.
The results which are reported in Table 9 are expressed in terms of the variation of temperature for different doses. Buspirone was tested on Sprague Dawley rats.

[5] = Plasma concentration in combative mice as a function of time; format: in vivo; conditions: 10 mg/kg i.p.
Description: A calibration curve is established using mouse blood plasma. Two samples are used for each concentration. The method used is as follows.
200 μl of plasma are taken and denaturated with 400 μl of acetonitrile. 500 μl of the clear liquid is taken.
A derivative is made with 50 μl of orthophthalaldehyde (0.05M) in a test tube and 25 μl of the solution is injected into a high performance liquid chromatography apparatus after 30 minutes.
3-Amino-4-pentyne is used as standard.
The following equation describes the calibration curve: […]
The concentration of compound N^o 3 in the plasma is given by the following equation: [formula] B. Evaluation in Vivo
The pharmacokinetic profile is established in combative mice.
The mice are placed together, in pairs, for 5 minutes. This pairing is performed 10, 25, 55, 85 and 115 minutes after the administration of compound N^o 3. One minute after each of the 5 minute periods of placing the animals together, three pairs of animals are anesthetized with ether and guillotined in order to determine the concentration of compound N^o 3 in the plasma. The plasma sample is prepared by centrifugation (16,000 G) of 800 μl of blood to which 50 μl of EDTA Na4 (0.1M) is added. The inhibition of aggressive behavior at the different times in which the animals are placed together and the number of pairs evaluated is shown in the following Table: […]

[6] = test system: spontaneous motor activity in mice; assay: Inhibition of spontaneous motor activity in mice; format: in vivo, CD #1 mice; conditions: for ED50: Mus musculus, ip, 0.5 h, i.p., 30 minutes
Description: 4. Inhibition of Spontaneous Motor Activity in Mice
Female CD #1 mice (20-30 g) are used for this experiment. The effect of the compound to be studied on spontaneous activity was evaluated by an automated […] XYZ system. This system allows the simultaneous quantification of the following parameters:
number of stereotypic movements;
number of vertical movements;
number of clockwise revolutions; and
number of counterclockwise revolutions.
as §1

[7] = test system: conditioned avoidance response in rats; assay: Inhibition of conditioned avoidance response in rats; format: in vivo, Sprague Dawley rats
Text: 6. Inhibition of Conditioned Avoidance Response in Rats
Male Sprague Dawley rats (200-250 g) are trained to avoid an electric foot shock, by continuously changing room with the appropriate visuals and auditory signals, in an automatic 2-way conditioned avoidance apparatus (Coulbourn Instrument Co.). Only the animals that perform at least a 70% avoidance (3 successive training sessions) are kept for the experiment.
The day of the experiment, the selected animals are submitted to a pre-treatment control session. The compound to be studied is then administered i.p. and the animals are placed back in the apparatus for evaluation 30 minutes later. Diazepam was used as a standard.

[8] = read-out: ED50, clockwise revolutions
[9] = read-out: ED50, counterclockwise revolutions
[10] = read-out: ED50, horizontal activity
[11] = read-out: ED50, number of movements
[12] = read-out: ED50, number of stereotypic movements
[13] = read-out: ED50, stereotypy time

## C#CC(C)N (stereo not drawn) [Compound 3, 2-Amino-3-butyne]
In vivo
  TD50 at 0.5 h: 720 mg/kg
[1]
  inhibition of spontaneous motor activity (in words): of comparable activity in rats
[1]; [8]
  ED50: 4.1 ± 1.4 mg/kg
[1]; [9]
  ED50: 3.7 ± 1.7 mg/kg
[1]; [10]
  ED50: 4.2 ± 1.8 mg/kg
[1]; read-out: ED50, movement time
  ED50: 5.5 ± 2.3 mg/kg
[1]; [11]
  ED50: 11.8 ± 7.9 mg/kg
[1]; [12]
  ED50: 5.2 ± 2.4 mg/kg
[1]; [13]
  ED50: 4.2 ± 1.7 mg/kg
[1]; read-out: ED50, total distance
  ED50: 4.9 ± 2 mg/kg
[2]
  neurotoxicity / motor activity (in words): much less neurotoxic than buspirone (rot TD50 =135 mg/kg p.o.) and diazepam
[3]; 10 mg/kg i.p.
  percentage of animals displaying a loss of the righting reflex: 50%
[3]; 30 mg/kg i.p.
  percentage of animals displaying a loss of the righting reflex: 50%
[3]; 100 mg/kg i.p.
  percentage of animals displaying a loss of the righting reflex: 25%
[3]; subhypnotic dose of ethanol, mice
  potentiation of ethanol (in words): active at t = 30 min; also recorded: potentiate the effect of a subhypnotic effect dose of ethanol
Acute toxicity test
  LD50: 1370 mg/kg
[4]; dose 10, s.c.
  Temp. Difference from Control: -2.6
[4]; dose 30, s.c.
  Temp. Difference from Control: -2.5
[4]; dose 100, s.c.
  Temp. Difference from Control: -4.1
[4]; s.c.
  hypothermia (in words): slight, transient hypothermia comparable to that induced by buspirone
[5]; FIG. 1
  elimination / plasma level (in words): elimination of compound N^o 3 is very rapid; also recorded: not detectable, by the method used, 90 minutes after the injection
[5]; mouse, plasma, ip, 15 min, N = 6, read-out: plasma concentration ± S.E.
  concentration at […]: 4800 ± 400 µM
[5]; mouse, plasma, ip, 30 min, N = 6, read-out: plasma concentration ± S.E.
  concentration at 0.5 h: 2000 ± 200 µM
[5]; mouse, plasma, ip, 60 min, N = 5, read-out: plasma concentration ± S.E.
  concentration at 1 h: 900 ± 200 µM
[5]; mouse, plasma, ip, 90 min, N = 6, read-out: plasma concentration ± S.E.
  concentration at 1.5 h: < 5 µM
[5]; mouse, plasma, ip, 120 min, N = 6, read-out: plasma concentration ± S.E.
  concentration at 2 h: < 5 µM
[6]
  inhibition of spontaneous motor activity (in words): more active than buspirone in mice
[6]; [8]
  ED50: 3.3 ± 1.6 mg/kg
[6]; [9]
  ED50: 2.7 ± 1.9 mg/kg
[6]; [10]
  ED50: 4.3 ± 2.2 mg/kg
[6]; read-out: ED50, movement time
  ED50: 8.1 ± 4.5 mg/kg
[6]; [11]
  ED50: 11.8 ± 5.9 mg/kg
[6]; [12]
  ED50: 5.5 ± 2.2 mg/kg
[6]; [13]
  ED50: 3.8 ± 1.6 mg/kg
[6]; read-out: ED50, total distance
  ED50: 5.5 ± 3.4 mg/kg
[6]; read-out: ED50, vertical activity
  ED50: 2.5 ± 1.2 mg/kg
[6]; read-out: ED50, vertical movements
  ED50: 3.2 ± 1.6 mg/kg
[6]; read-out: ED50, vertical time
  ED50: 2.6 ± 1.5 mg/kg
[7]; 10 mg/kg i.p., first exposure
  conditioned avoidance response, first exposure: 3%
[7]; 10 mg/kg i.p., re-exposed
  conditioned avoidance response, re-exposed: 29%
[7]; Rattus norvegicus, ip, 0.5 h, calculated with repeated exposure, r^2 = 0.43
  ED50: 21.5 ± 11.2 mg/kg
[7]; rats
  inhibition of conditioned avoidance response (in words): very active at first; also recorded: much less active if re-; also recorded: inhibit conditioned avoidance in rats, but are less active than diazepam; also recorded: loss of activity in the case of compound N^o 3 after the first exposure to the drug; also recorded: does not seem to impair the animal's sensory discrimination at doses 2 to 3 times above that which produces a quieting effect with repeated exposure
